Measurements taken from US20250271442A1, “Methods for Detecting Renal Disease” (IDEXX Laboratories, Inc., priority 2013, published 2025).
Converted amounts (≈) assume the structure as drawn.

Experiments:
Format in all cases: binding
[1] = system: rabbit anti-SDMA antibody in serum, Rabbit # 157 (SDMA-BSA immunogen); test: Competitive ELISA, specificity of rabbit anti-SDMA antiserum, Rabbit #157; settings: Rabbit # 157 antiserum (1:15K); for % Cross Reactivity: IC50 of SDMA / IC50 of competitor x 100; for IC 50: competition with SDMA-HRP conjugate, absorbance 450 nm
Description: (§1) The immunization protocol for generating the anti-SDMA antibodies was carried out according to the following protocol. Six California breed rabbits were immunized with an SDMA-conjugate. Three of the six rabbits were immunized with SDMA conjugated with BSA (rabbits #155, 156 and 157) and the other three rabbits were immunized with SDMA conjugated with KLH (rabbits #152, 153 and 154) (prepared as described in Example 2). For primary immunizations, each rabbit was injected with 0.5 mg of the SDMA conjugate in 1 ml of phosphate buffered saline (PBS) mixed with 1 ml of Freund's complete adjuvant. Each rabbit received 20-30 intradermal injections on their shaved back. Each rabbit was boosted with 0.25 mg of immunogen in 1 ml PBS mixed with equal volume of Freund's incomplete adjuvant in the hind legs. The boosting shots were given each month after the primary injection. Test bleeds of 5 ml blood were taken from each rabbit 7-10 days after each boost. Production bleeds of 40 ml were taken from each rabbit after the third booster shot, when the antisera titer was greater than about 1:2000. Antiserum titer is the dilution of antiserum that generates the steepest calibration curve for the assay.
(§2) In order to assess the specificity of the antibodies obtained by the procedures described in Example 3 above, their reactivity to SDMA, ADMA, L-arginine, and/or N-methylarginine was measured in a competitive ELISA assay (Table 1).
(§3) ADMA-2HCl, SDMA-2HCl, N-methylarginine acetate (Sigma, Cat. No. M7033) or L-arginine (Sigma, Cat. No. A5006) were each dissolved in PBS to make stock solutions at 1 mg/ml. From these stock solutions, working solutions at 100 μg/ml, 10 μg/ml and 1 μg/ml were prepared in PBS.
(§4) […] After a 30 minutes incubation period at room temperature, the wells were washed 4 times with PBST (Phosphate Buffered Saline, 0.05% Tween).
(§5) 100 μl of 3,3′,5,5′-Tetramethylbenzidine (commercially available from Promega Corporation of Madison, WI) was subsequently added. Following a 30 minutes incubation period at room temperature, 100 μl of stop solution (1 N HCl) was added and the absorbance was measured at 450 nm using a BioTek ELX 808 (Winooski, VT) plate reader. The data was subjected to quantification using Softmax software (Molecular Devices, Sunnyvale, CA).
(§6) The absorbance values obtained with 0 μg/mL, 1 μg/mL, 10 μg/mL, and 100 μg/mL of ADMA, SDMA, N-methylarginine or L-arginine, respectively, were determined and plotted. The concentration of SDMA at which the absorbance value was reduced by 50% (relative to the maximum absorbance obtained at 0 μg/mL SDMA; i.e. IC50) was divided by each of the concentrations of ADMA, N-methylarginine or L-arginine, respectively, at which the absorbance value was reduced by 50% (IC50). The resulting value was multiplied by 100 to obtain the value “% cross-reactivity”.

[2] = system: polyclonal antibody from Rabbit No. 154 (anti-SDMA); test: Competitive ELISA, specificity with greater stringency, polyclonal antibody from Rabbit No. 154; settings: polyclonal antibody from Rabbit No. 154, determined with greater stringency
Description: (§7) 50 μl of the SDMA-HRP conjugate (as described in Example 5 below), 50 μl of ADMA, SDMA, N-methylarginine or L-arginine (at concentrations from 1-100 μg/ml as described above), and 50 μl of rabbit anti-SDMA antibody in serum (1:3000 titer) were sequentially added to an individual well in a 96-well polystyrene microwell plate, precoated with sheep anti-rabbit IgG (commercially available from Beacon Analytical Systems Inc. of Portland, ME). After a 30 minutes incubation period at room temperature, the wells were washed 4 times with PBST (Phosphate Buffered Saline, 0.05% Tween).
as §5, §6
In another experiment, using only polyclonal antibody from Rabbit No. 154, the specificity of the antibody was determined with greater stringency by the method described above.

[3] = system: rabbit anti-SDMA antibody in serum, Rabbit # 152 (SDMA-KLH immunogen); test: Competitive ELISA, specificity of rabbit anti-SDMA antiserum, Rabbit #152; settings: Rabbit # 152 antiserum (1:5K); for % Cross Reactivity: IC50 of SDMA / IC50 of competitor x 100; for IC 50: competition with SDMA-HRP conjugate, absorbance 450 nm
Description: as §1, §2, §3, §4, §5, §6

[4] = system: rabbit anti-SDMA antibody in serum, Rabbit # 156 (SDMA-BSA immunogen); test: Competitive ELISA, specificity of rabbit anti-SDMA antiserum, Rabbit #156; settings: Rabbit # 156 antiserum (1:20K); for % Cross Reactivity: IC50 of SDMA / IC50 of competitor x 100; for IC 50: competition with SDMA-HRP conjugate, absorbance 450 nm
Description: as §1, §2, §3, §4, §5, §6

[5] = system: rabbit anti-SDMA antibody in serum, Rabbit # 153 (SDMA-KLH immunogen); test: Competitive ELISA, specificity of rabbit anti-SDMA antiserum, Rabbit #153; settings: Rabbit # 153 antiserum (1:2.5K); for % Cross Reactivity: IC50 of SDMA / IC50 of competitor x 100; for IC 50: competition with SDMA-HRP conjugate, absorbance 450 nm
Description: as §1, §2, §3, §4, §5, §6

[6] = system: rabbit anti-SDMA antibody in serum, Rabbit # 155 (SDMA-BSA immunogen); test: Competitive ELISA, specificity of rabbit anti-SDMA antiserum, Rabbit #155; settings: Rabbit # 155 antiserum (1:3K); for % Cross Reactivity: IC50 of SDMA / IC50 of competitor x 100; for IC 50: competition with SDMA-HRP conjugate, absorbance 450 nm
Description: as §1, §2, §3, §7, §5, §6

[7] = system: rabbit anti-SDMA antibody in serum, Rabbit # 154 (SDMA-KLH immunogen); test: Competitive ELISA, specificity of rabbit anti-SDMA antiserum, Rabbit #154; settings: Rabbit # 154 antiserum (1.25K); for % Cross Reactivity: IC50 of SDMA / IC50 of competitor x 100; for IC 50: competition with SDMA-HRP conjugate, absorbance 450 nm
Description: as §1, §2, §3, §4, §5, §6

| Compound | % Cross Reactivity [1] [%] | IC 50 [1] [µg/mL] | Specificity (Cross-Reactivity) Rabbit No. 154 Cross-reactivity [2] [%] | % Cross Reactivity [3] [%] | IC 50 [3] [µg/mL] | % Cross Reactivity [4] [%] | IC 50 [4] [µg/mL] | % Cross Reactivity [5] [%] | IC 50 [5] [µg/mL] | % Cross Reactivity [6] [%] | IC 50 [6] [µg/mL] | % Cross Reactivity [7] [%] | IC 50 [7] [µg/mL] |
| --- | --- | --- | --- | --- | --- | --- | --- | --- | --- | --- | --- | --- | --- |
| C/N=C(\NC)NCCCC(N)C(=O)O (stereo not drawn) [SDMA, symmetrical dimethylarginine] | 100 | 1.6 (≈ 7.91 µM) | 100 | 100 | 1.10 (≈ 5.44 µM) | 100 | 1.3 (≈ 6.43 µM) | 100 | 0.65 (≈ 3.21 µM) | 100 | 0.73 (≈ 3.61 µM) | 100 | 0.49 (≈ 2.42 µM) |
| CNC(=N)NCCCC(N)C(=O)O (stereo not drawn) [N-MMA, N-monomethylarginine] | <1 | >100 |  | <1 | >100 | <1 | >100 | <1 | >100 | <1 | 79 (≈ 420 µM) | <1 | >100 |
| CN(C)C(=N)NCCCC(N)C(=O)O (stereo not drawn) [ADMA, asymmetrical dimethylarginine] | <1 | >100 | <0.2 | <1 | >100 | <1 | >100 | <1 | >100 | <1 | >100 | <1 | >100 |
| N=C(N)NCCC[C@H](N)C(=O)O [L-Arginine, L-arginine] | <1 | >100 | <0.01 | <1 | >100 | <1 | >100 | <1 | >100 | <1 | >100 | <1 | >100 |
